In patent US4576959A, “6-Substituted-4-dialkylaminotetrahydrobenz[c,d]indoles” (priority 1985, dated 1986):

Columns and labels:
[1] = test system: dopamine uptake in bovine striatal membrane; conditions: cited from earlier work
[2] = Serum corticosteroids (corticosterone); format: in vivo, Wistar rats; conditions: 0.3 mg./kg. s.c., 1 hour before rats were killed; control 7 ± 1; * = statistically significant
Experimental: (§1) The following protocol was employed. 150-200 g. Wistar rats were given 0.3 mg./kg. subcutaneously of (±)-4-di-n-propylamino-6-substituted-1,3,4,5-tetrahydrobenz[c,d]indole.Then, 60 minutes later each rat was decapitated and the hypothalamus and striatum were dissected out and extracted. The amounts of homovanillic acid (HVA) and 3,4-dihydroxyphenylacetic acid (DOPAC) in the striatum and of 5-hydroxyindoleacetic acid (5HIAA) in the hypothalamus were measured by high-performance liquid chromatography, using electrochemical detection. Serum corticosteroids were also measured. In the table, columns 1 and 2 give the substitution pattern in the compounds of formula IV, columns 3-5, the 5HT or dopamine metabolite concentrations, and column 6, the serum corticosteroids.

[3] = target: ^3 H-serotonin (^3 H-5HT) receptor binding, cerebral cortex; assay: Inhibition of ^3 H-serotonin (^3 H-5HT) specific binding in rat cerebral cortex membranes; design: species or system male Wistar rats; conditions: ^3 H-serotonin 2-3 nM, 15 minutes at 37°, pH=7.4, values in nanomoles of inhibitor, read-out: ^3 H-Ligand-IC50, ^3 H-5HT
[4] = target: T1, ^3 H-spiperone (^3 H-SPIP) receptor binding, cerebral cortex (Rattus norvegicus, UniProt P14842); assay: Inhibition of ^3 H-spiperone (^3 H-SPIP) specific binding in rat cerebral cortex membranes; design: species or system male Wistar rats; conditions: ^3 H-spiperone 0.6-0.7 nM, 15 minutes at 37°, pH=7.4, values in nanomoles of inhibitor, read-out: ^3 H-Ligand-IC50, ^3 H-SPIP
T1 construct: The cerebral cortex was dissected out and then homogenized and centrifuged; from tissue; host or cells: cerebral cortex membranes of male Wistar rats
Experimental: Brain tissue was obtained from 150-200 g. male Wistar rats. The cerebral cortex was dissected out and then homogenized and centrifuged according to the method described by Nelson and coworkers, Mol. Pharmacol., 14, 983-995 (1978), using preincubation in buffer without added monoamine oxidase inhibitor in order to eliminate endogenous serotonin. For receptor binding, each sample contained 300-400 μg. of membrane protein and 10 μM pargyline in addition to the ^3 H-ligand in 1 ml. of 0.05M tris buffer, pH=7.4. The assay of serotinin binding was done following the method of Bennett and Snyder, Mol. Pharmacol., 12, 373-389 (1976), and that for tritiated spiperone according to Peroutka and Snyder, Mol. Pharmacol., 16, 687-699 (1979). The samples were incubated for 15 minutes at 37° and were then filtered through GF/C glass fiber filter pads using a Brandel M-24 cell harvester modified for receptor binding. After two 5 ml. rinses, the filter discs were put into scintillation vials and counted in 10 ml. of Amersham PCS scintillation fluid. Nonspecific binding of ^3 H-serotonin (^3 H-5HT) was determined in the presence of 10^-5 M serotonin and of ^3 H-spiperone in the presence of 10^-6 M LSD. Specific binding was calculated as the difference between total binding with no added nonradioactive compound and the nonspecific binding.

[5] = test system: central serotonin (5HIAA in hypothalamus); assay: Decrease of serotonin metabolite 5HIAA in hypothalamus as a measure of central serotonin agonist activity; format: in vivo, Wistar rats; conditions: 0.3 mg./kg. s.c., 1 hour before rats were killed; control 2.59 ± .11; * = statistically significant
Experimental: (§2) Secondly, as a measure of central serotonin agonist activity, the decrease of serotonin metabolites in brain was measured. Also the measure of dopamine agonist activity was indicated by changes in dopamine metabolites.
as §1

[6] = test system: dopamine (metabolites in striatum); assay: Changes in dopamine metabolites (DOPAC, HVA) in striatum as a measure of dopamine agonist activity; format: in vivo, Wistar rats; conditions: 0.3 mg./kg. s.c., 1 hour before rats were killed, * = statistically significant; for Dopamine Metabolites In Striatum, HVA: control 4.24 ± .27; for Dopamine Metabolites In Striatum, DOPAC: control 5.58 ± .38
Experimental: as §2, §1

T1 sequence (P14842 whole entry): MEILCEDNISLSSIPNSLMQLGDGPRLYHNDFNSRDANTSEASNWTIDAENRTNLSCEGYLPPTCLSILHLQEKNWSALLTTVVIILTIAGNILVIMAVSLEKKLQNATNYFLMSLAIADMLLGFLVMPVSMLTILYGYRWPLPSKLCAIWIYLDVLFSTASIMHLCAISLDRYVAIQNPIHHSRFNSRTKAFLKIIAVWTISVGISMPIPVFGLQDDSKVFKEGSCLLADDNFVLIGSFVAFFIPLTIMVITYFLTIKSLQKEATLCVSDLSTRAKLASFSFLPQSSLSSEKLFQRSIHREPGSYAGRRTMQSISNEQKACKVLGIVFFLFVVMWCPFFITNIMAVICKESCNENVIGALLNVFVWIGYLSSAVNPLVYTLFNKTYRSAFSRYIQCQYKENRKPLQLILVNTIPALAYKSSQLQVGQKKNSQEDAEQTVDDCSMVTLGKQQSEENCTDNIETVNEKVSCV

SMILES | dopamine agonist action (inhibiting dopamine uptake in bovine striatal membrane in vitro) [1] | Serum Corticosterone [2] | IC50 [3] | IC50 [4] | 5HIAA In Hypothalamus [5] | Dopamine Metabolites In Striatum, HVA [6] | Dopamine Metabolites In Striatum, DOPAC [6]
CCCN(CCC)C1Cc2cccc3[nH]cc(c23)C1 (racemic) [(±)-4-(di-n-propyl)amino-1,3,4,5-tetrahydrobenz[c,d]indole] | selective dopamine agonist | – | – | – | – | – | –
CCCN(CCC)C1Cc2c[nH]c3ccc(C(N)=O)c(c23)C1 (racemic) [(±)-4-Di-n-propylamino-6-carbamoyl-1,3,4,5-tetrahydrobenz[c,d]indole] | – | 49 ± 2 MCG/100 ML | 60 nM | 4980 nM | 1.58 ± .03 NMoles/G | 4.12 ± .27 NMoles/G | 6.23 ± .56 NMoles/G
CCCN(CCC)C1Cc2c[nH]c3ccc(C#N)c(c23)C1 (racemic) [(±)-4-Di-n-propylamino-6-cyano-1,3,4,5-tetrahydrobenz[c,d]indole] | – | 47 ± 4 MCG/100 ML | 90 nM | 390 nM | 2.34 ± .07 NMoles/G | 2.27 ± .16 NMoles/G | 4.25 ± .25 NMoles/G
CCCN(CCC)C1Cc2c[nH]c3ccc([N+](=O)[O-])c(c23)C1 (racemic) [(±)-4-Di-n-propylamino-6-nitro-1,3,4,5-tetrahydrobenz[c,d]indole] | – | 49 ± 2 MCG/100 ML | 100 nM | 400 nM | 2.29 ± .03 NMoles/G | 2.02 ± .20 NMoles/G | 3.74 ± .11 NMoles/G
